By TGI is commonly meant the concentration giving total growth inhibition. A lower TGI goes with more potent growth arrest.

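Method: 48-hour compound exposure of cells in 96-well plates, five concentrations, linear interpolation of endpoints. TGI marks complete inhibition of growth.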

Common to all, as to test: DTP human tumour cell line panel, 48 h
The test system of assay [1] is A549 NSCLC.
For assay [2], the system named is SN12C renal.
Assay [3] concerns TK-10 renal.
In assay [4] the test system is NCI-H226 lung.
The test system of assay [5] is DU-145 prostate.
Assay [6] relates to LOX IMVI melanoma.
Assay [7] deals with PC-3 prostate.
Assay [8] relates to U251 CNS.
Assay [9] deals with UACC-257 melanoma.
For assay [10], the system named is K-562 leukemia.
Assay [11] deals with MCF7 breast.
Assay [12] concerns SNB-75 CNS.
Assay [13] has as its system SF-295 CNS.
The subject of assay [14] is SK-MEL-2 melanoma.
Assay [15] relates to HS 578T breast.

`C=C(C)C#CC(O)(C(=O)OC1CCN(C)CC1)C(C)C` (centres undefined): the TGI in [1], in assay [2], in [3], in [4], in [5] and in [6] was above 100 µM in each case. The TGI in assay [7], in [8], in assay [9], in assay [10], in assay [11] and in assay [12] was above 100 µM in each case. In assay [13], the concentration for total growth inhibition (TGI) was above 100 µM.
For `COC(=O)Nc1nc2ccc(Oc3ccc4nc(NC(=O)OC)[nH]c4c3)cc2[nH]1`, the TGI in assay [1] was above 100 µM; in [2] it was above 100 µM; in [3] it was above 63.7 µM; in [4], 2.72 µM; in assay [5], 6.09 µM; in assay [6], above 100 µM. The TGI in [7] was above 78.5 µM; in assay [8] it was 10.9 µM; in assay [9] it was above 100 µM; in [10] it was above 45.2 µM; in assay [11], above 100 µM; in assay [12], 2.87 µM. In addition, the TGI in assay [13] and in assay [14] was above 100 µM each time.
For `Oc1[nH]c2ccccc2c1N=NC(=S)N1CCCCC1`, the total growth inhibition concentration (TGI) in assay [1] was 3.44 µM; in assay [2], 15.1 µM; in assay [3] it was 3.84 µM; in assay [4], 5.02 µM; in assay [5], 10.9 µM; in assay [6], 3.2 µM. The total growth inhibition concentration (TGI) was 10.3 µM in [7]; 7.83 µM in assay [8]; 6.26 µM in assay [11]; 6.71 µM in assay [12]; 3.36 µM in assay [13]; 6.12 µM in [14].
With `COC(=O)/C=C/c1cnc2c(c1)oc(=O)n2CCc1ccccn1`, the TGI in assay [1], in assay [2], in [3], in assay [4], in assay [6] and in assay [7] was above 100 µM in each case. For the same molecule, the TGI in [8], in assay [15], in [9], in assay [10], in assay [11] and in [12] was above 100 µM throughout. The TGI in [13] and in assay [14] was above 100 µM throughout.
`CCOC(=O)[C@@H]1C[C@H]1c1ccc(O)c(O)c1`: the TGI in [1], in assay [2], in assay [3], in assay [4], in assay [5] and in [7] was above 100 µM in each case. The concentration for total growth inhibition (TGI) was above 100 µM in [8]; above 100 µM in assay [15]; above 100 µM in [9]; 51.3 µM in [10]; above 100 µM in [11]; above 100 µM in [13]. Further, the TGI in [14] turned out to be 61.5 µM.
Regarding `O=C1c2cccc3cccc(c23)C(=O)N1CCCNCCCCNCCCN1C(=O)c2cccc3cccc(c23)C1=O`, the total growth inhibition concentration (TGI) in [1] was found to be 0.833 µM; in assay [2], 2.37 µM; in assay [3], 7.62 µM; in [4] it was 2.5 µM; in assay [5] it was 1.14 µM; in assay [6], 0.255 µM. In addition, the total growth inhibition concentration (TGI) in [7] was 1.05 µM; in assay [8] it was 1.22 µM; in assay [15] it was 0.216 µM; in [9], 1.91 µM; in assay [10], 0.337 µM; in assay [12], 1.01 µM. For the same molecule, the TGI in assay [13] is 3.4 µM; in [14], 1.89 µM.
With `CCN(CC)CCNc1ccc2ncn3c4c(OC)ccc(OC)c4c(=O)c1c23`, the TGI in assay [1] was 54.4 µM; in [3], above 100 µM; in assay [4], above 100 µM; in [5], 25.7 µM; in assay [8], 35.6 µM; in [9] it was above 100 µM. The TGI in assay [10] worked out at 49.4 µM; in assay [11], 17 µM; in assay [12], 23.3 µM; in assay [13], 29.7 µM.
In the case of `CC1C2=C(CC(C)(C)CC2=O)NC2=C1C(=O)CC(C)(C)C2`, the total growth inhibition concentration (TGI) in assay [1], in [2], in assay [3], in [4], in assay [6] and in assay [7] was above 100 µM each time. Besides, the TGI in assay [8], in assay [15], in assay [10], in assay [11] and in assay [12] was above 100 µM each time.
Regarding `O=S(=O)(C(=Ic1ccccc1)S(=O)(=O)C(F)(F)C(F)(F)C(F)(F)C(F)(F)F)C(F)(F)C(F)(F)C(F)(F)C(F)(F)F`, the TGI is 34.3 µM in [1]; 29.9 µM in [3]; 15 µM in assay [4]; 28 µM in [6]; 31.6 µM in [7]; 29.5 µM in [8]. In addition, the TGI was determined as 56.9 µM in [15]; 32.8 µM in [9]; 16.4 µM in assay [10]; 18.1 µM in assay [11]; 28.5 µM in assay [12]; 30.6 µM in assay [13].
In the case of `O=C(O)c1nc2cc(C(F)(F)F)ccc2nc1Nc1ccc(Cl)c(Cl)c1`, the TGI amounted to 21.8 µM in [1]; 37.1 µM in assay [3]; 34 µM in assay [4]; 31.2 µM in [6]; 16.1 µM in assay [7]; 33.6 µM in [8]. In addition, the TGI in [15] was 37.8 µM; in assay [9], 64.5 µM; in assay [10], above 100 µM; in assay [11] it was 90.1 µM; in assay [12] it was 53.3 µM; in assay [13] it was 31.7 µM. Besides, in assay [14], the concentration for total growth inhibition (TGI) was 8.25 µM.
Consider `COc1ccc(C2=C(Cl)c3cc(OC)c(OC)cc3C2=O)cc1OC`, for which the TGI in assay [1] is above 100 µM; in [2], 32.9 µM; in [3] it was 25.6 µM; in assay [4], above 100 µM; in assay [5], 32.7 µM; in [6], 24.7 µM. The TGI in assay [15] is 87.4 µM; in assay [9], 15.5 µM; in assay [11], 27.9 µM; in assay [12] it was above 100 µM; in [13], above 100 µM; in [14] it was 28 µM.
For the molecule `C[C@]12CCC3c4ccc(O)cc4CC[C@H]3C1CC(=O)N(N)C2=O` (some centres undefined), the total growth inhibition concentration (TGI) in [1], in assay [2], in assay [3], in assay [4], in assay [5] and in assay [7] was above 100 µM each time. Moreover, the total growth inhibition concentration (TGI) in assay [8], in assay [15], in [9], in [10], in [11] and in assay [12] was above 100 µM throughout. Further, the TGI in assay [13] is above 100 µM.
For `NCCC(=O)N[C@H](Cc1cc(O)c(O)c(SCC(NC(=O)CC[C@H](N)C(=O)O)C(=O)NCC(=O)O)c1)C(=O)O` (some centres undefined), the total growth inhibition concentration (TGI) in [1], in [2], in assay [3], in [4], in assay [5] and in [7] was above 50 µM each time. The TGI in assay [8], in assay [9], in assay [10], in assay [11], in assay [12] and in [13] was above 50 µM in each case. Besides, in assay [14], the TGI was above 50 µM.
For the molecule `O=C1CSC(/C=C/c2ccccc2)N1c1ccc(-c2ccc(-n3c(-c4ccccc4)nc4ccccc4c3=O)cc2)cc1` (centres undefined), the concentration for total growth inhibition (TGI) in assay [1] was 68 µM; in assay [2], above 100 µM; in assay [3], above 100 µM; in [5] it was above 100 µM; in assay [6], 32.7 µM; in assay [7] it was 65.3 µM. Further, the TGI in [8] was 88.5 µM; in assay [9] it was 93.1 µM; in [10] it was above 100 µM; in [11], 95.9 µM; in [12], 8.52 µM; in assay [13], 55.7 µM. In addition, the total growth inhibition concentration (TGI) in [14] came to 38.6 µM.
As for `NC(=O)c1cc(-c2ccc(-n3ccnc3)cc2)n[nH]c1=O`, the TGI in [1], in [2], in assay [3], in assay [5], in assay [7] and in assay [8] was above 100 µM throughout. Moreover, the total growth inhibition concentration (TGI) in [15], in assay [9], in assay [11] and in assay [12] was above 100 µM each time.
In the case of `CSc1ccccc1P(c1ccccc1SC)c1ccccc1SC`, the TGI in assay [1], in assay [2], in assay [3], in assay [4], in assay [5] and in [6] was above 100 µM throughout. Also, the TGI in assay [8], in assay [15], in assay [10], in [11], in [13] and in [14] was above 100 µM throughout.
`CNC(=O)CCNC(=O)CCC(=O)N(C)C`: the total growth inhibition concentration (TGI) in [1], in assay [2], in assay [3], in [5], in assay [7] and in assay [8] was above 100 µM in each case. Also, the TGI in assay [10], in [11], in assay [13] and in assay [14] was above 100 µM each time.
